Measured values: patent US8546147B2, “Imidazo[1,2-α]pyrazin-3(7H)-one derivatives bearing a new electron-rich structure” (Universita degli Studi di Siena, priority 2009, dated 2013)
Read-outs that look alike come from different tables or passages of the source.

Key:
[1] = biological target: T1, RLuc (Renilla reniformis, UniProt P27652); details: cited from earlier work
T1 sequence (P27652 1-311): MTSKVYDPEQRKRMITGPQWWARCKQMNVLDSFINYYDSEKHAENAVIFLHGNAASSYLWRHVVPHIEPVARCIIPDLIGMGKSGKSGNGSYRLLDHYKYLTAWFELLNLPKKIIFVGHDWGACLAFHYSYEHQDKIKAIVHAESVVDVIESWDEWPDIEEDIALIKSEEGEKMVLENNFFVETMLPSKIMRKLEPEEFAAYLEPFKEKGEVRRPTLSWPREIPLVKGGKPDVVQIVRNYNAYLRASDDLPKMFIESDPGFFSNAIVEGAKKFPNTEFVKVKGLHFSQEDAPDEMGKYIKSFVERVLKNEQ

[2] = cited from earlier work
[3] = cited from earlier work; remark: listed apart in the source
[4] = Chemiluminescence spectrum in DMSO (Shimadzu RF5001PC); type: physicochemical; details: for max. emission peak of chemiluminescent spectrum: 1-3 μg/mL in DMSO
Procedure: Chemiluminescence Spectrums.
Consequently, 10 μL of the stock solution were directly diluted in the quartz cuvette reader of the Fluorescence Spectrophotometer Shimadzu RF5001PC, containing 3 mL of DMSO, to obtain a final sample concentration of 1-3 μg/mL.

[5] = biological target: T2, RLuC (donor) and Green Fluorescent Protein GFP (acceptor) (Renilla reniformis, UniProt P27652); details: three different times, FIG. 8-10
T2 sequence (P27652 1-311): T1 sequence (P27652 1-311)

[6] = biological target: T3, Renilla Luciferase (RLuC) (Renilla reniformis, UniProt P27652)
T3 sequence (P27652 1-311): T1 sequence (P27652 1-311)
Procedure: Bioluminescence Spectrum.
Bioluminescence was measured according to standard procedures.^40

[7] = first line of values, native = 1.00
[8] = second line of values (line with half-rise time in ms)

Compound	Half-rise Time ([2]; first line of values) [s]	Relative Intensity [2, 7]	Relative Luminescence capacity [2, 7]	Relative Intensity [2, 8]	Relative Luminescence capacity [2, 8]	Half-rise Time ([2]; second line of values) [s]	other results
O=c1c(Cc2ccccc2)nc2c(Cc3ccccc3)[nH]c(-c3ccccc3)cn1-2 [Coelenterazine 400a]	–	–	–	–	–	–	Rluc emission peak [1]: 395 nm
O=c1c(Cc2ccc(O)cc2)nc2c(CC3CCCC3)[nH]c(-c3ccc(O)cc3)cn1-2 [Coelenterazine cp]	0.15 to 0.3	20	0.95	28	0.63	0.005	–
Oc1ccc(Cc2nc3c(Cc4ccccc4)nc4c(n3c2O)CCc2cc(O)ccc2-4)cc1 [Coelenterazine e]	0.15 to 0.3	4	0.5	–	–	–	–
O=c1c(Cc2ccc(F)cc2)nc2c(Cc3ccccc3)[nH]c(-c3ccc(O)cc3)cn1-2 [Coelenterazine f]	0.4 to 0.8	18	0.80	20	0.80	0.006 to 0.03	–
O=c1c(Cc2ccc(F)cc2)nc2c(CC3CCCC3)[nH]c(-c3ccc(O)cc3)cn1-2 [Coelenterazine fcp]	0.4 to 0.8	135	0.57	–	–	–	–
Oc1ccc(-c2cn3c(O)c(Cc4ccccc4)nc3c(Cc3ccccc3)n2)cc1 [Coelenterazine h]	0.4 to 0.80	10	0.82	16	0.75	0.006 to 0.03	–
O=c1c(Cc2ccc(I)cc2)nc2c(Cc3ccccc3)[nH]c(-c3ccc(O)cc3)cn1-2 [Coelenterazine i]	8	0.03	0.70	–	–	–	–
O=c1c(Cc2ccc(O)cc2)nc2c(Cc3ccccc3)[nH]c(-c3ccc(O)cc3)cn1-2 [Compound 1, coelenterazine]	0.4 to 0.8	1.00	1.00	–	–	0.006 to 0.03	ΦCl ([3]; chemiluminescence quantum yield): 0.21%; Relative Light Yield ([3]; in brackets, relative to compound 1 (1.0)): 1.0
O=c1c(Cc2ccccc2)nc2c(Cc3ccccc3)[nH]c(-c3ccccc3)cn1-2 [Compound 23b, 2,8-Dibenzyl-6-phenylimidazo-[1,2-a]pyrazin-3(7H)-one]	–	–	–	–	–	–	max. emission peak of chemiluminescent spectrum [4]: 465 nm
O=c1c(Cc2ccccc2)nc2c(Cc3ccccc3)[nH]c(-c3ccc4c(c3)OCO4)cn1-2 [Compound 23e, 2,8-Dibenzyl-6-[3,4-(methylendioxy)-phenyl]imidazo-[1,2-a]pirazin-3(7H)-one]	–	–	–	–	–	–	emission over time in BRET experiment (in words) [5]: decrease over time; Shifts vs.23b ([6]; 1st measurement): 10.2 nm; Bioluminescent emission max ([6]; 1st measurement of triplicate): 397.6 nm; Shifts vs.23b ([6]; 2nd measurement): 5.5 nm; Bioluminescent emission max ([6]; 2nd measurement of triplicate): 397.5 nm; Shifts vs.23b ([6]; 3d measurement): 5.2 nm; Bioluminescent emission max ([6]; 3d measurement of triplicate): 398.2 nm
O=c1c(Cc2ccccc2)nc2c(Sc3ccccc3)[nH]c(-c3ccccc3)cn1-2 [Compound 23f, 2-Benzyl-6-phenyl-8-(phenylthio)imidazo-[1,2-a]pirazin-3(7H)-one]	–	–	–	–	–	–	kinetic of chemiluminescence (in words) [4]: slower than 23b; max. emission peak of chemiluminescent spectrum [4]: 510 nm; emission shift between chemiluminescent spectrums ([4]; 23f versus 23b): about 45 nm; chemiluminescence intensity (in words) ([4]; compared with 23b): relative lowest intensity; emission over time in BRET experiment (in words) [5]: long lasting; bioluminescent emission [6]: about 415 nm; shift in respect of compound 23b [6]: about 30 nm; Shifts vs.23b ([6]; 1st measurement): 27.7 nm; Bioluminescent emission max ([6]; 1st measurement of triplicate): 415.1 nm; Shifts vs.23b ([6]; 2nd measurement): 27.4 nm; Bioluminescent emission max ([6]; 2nd measurement of triplicate): 419.4 nm; Shifts vs.23b ([6]; 3d measurement): 31.4 nm; Bioluminescent emission max ([6]; 3d measurement of triplicate): 424.3 nm
O=c1c(Cc2ccccc2)nc2c(Sc3ccc(Cl)cc3)[nH]c(-c3ccc(O)cc3)cn1-2 [Compound 23i, 2-Benzyl-8-(4-chlorophenylthio)-6-(4-hydroxyphenyl)imidazo[1,2-a]pyrazin-3(7H)-one]	–	–	–	–	–	–	Chemil. Imax [4]: 505 nm; Biolum. Imax [6]: 510 nm
O=c1c(Cc2ccccc2)nc2c(Sc3ccc(Cl)cc3)[nH]c(-c3ccccc3)cn1-2 [Compound 23n, 2-Benzyl-8-(4-chlorophenylthio)-6-phenylimidazo[1,2-a]pyrazin-3(7H)-one]	–	–	–	–	–	–	Chemil. Imax [4]: 505 nm
Coelenterazine hcp	0.15 to 0.3	190	0.67	500	0.65	0.002 to 0.005	–
Coelenterazine ip	1	47	0.54	–	–	–	–
Coelenterazine n	5	0.01	0.26	0.15	0.25	0.006 to 0.03	–
